In publication PMC9504748, “Discovery of Flavonoids as Novel Inhibitors of ATP Citrate Lyase: Structure–Activity Relationship and Inhibition Profiles” (International Journal of Molecular Sciences, 2022):
Read-outs that look alike come from different tables or passages of the source.

What was measured:
[1] = system: mice fed on a high-fat diet; set-up: method as in PMID 17383874; settings: cited from earlier work
ACLY [2] = target: T1, ACLY (Homo sapiens, UniProt P53396); settings: cited from earlier work
T1 construct: His; made in house; host or cells: Escherichia coli BL21(DE3)
T1 sequence (P53396 1-1101): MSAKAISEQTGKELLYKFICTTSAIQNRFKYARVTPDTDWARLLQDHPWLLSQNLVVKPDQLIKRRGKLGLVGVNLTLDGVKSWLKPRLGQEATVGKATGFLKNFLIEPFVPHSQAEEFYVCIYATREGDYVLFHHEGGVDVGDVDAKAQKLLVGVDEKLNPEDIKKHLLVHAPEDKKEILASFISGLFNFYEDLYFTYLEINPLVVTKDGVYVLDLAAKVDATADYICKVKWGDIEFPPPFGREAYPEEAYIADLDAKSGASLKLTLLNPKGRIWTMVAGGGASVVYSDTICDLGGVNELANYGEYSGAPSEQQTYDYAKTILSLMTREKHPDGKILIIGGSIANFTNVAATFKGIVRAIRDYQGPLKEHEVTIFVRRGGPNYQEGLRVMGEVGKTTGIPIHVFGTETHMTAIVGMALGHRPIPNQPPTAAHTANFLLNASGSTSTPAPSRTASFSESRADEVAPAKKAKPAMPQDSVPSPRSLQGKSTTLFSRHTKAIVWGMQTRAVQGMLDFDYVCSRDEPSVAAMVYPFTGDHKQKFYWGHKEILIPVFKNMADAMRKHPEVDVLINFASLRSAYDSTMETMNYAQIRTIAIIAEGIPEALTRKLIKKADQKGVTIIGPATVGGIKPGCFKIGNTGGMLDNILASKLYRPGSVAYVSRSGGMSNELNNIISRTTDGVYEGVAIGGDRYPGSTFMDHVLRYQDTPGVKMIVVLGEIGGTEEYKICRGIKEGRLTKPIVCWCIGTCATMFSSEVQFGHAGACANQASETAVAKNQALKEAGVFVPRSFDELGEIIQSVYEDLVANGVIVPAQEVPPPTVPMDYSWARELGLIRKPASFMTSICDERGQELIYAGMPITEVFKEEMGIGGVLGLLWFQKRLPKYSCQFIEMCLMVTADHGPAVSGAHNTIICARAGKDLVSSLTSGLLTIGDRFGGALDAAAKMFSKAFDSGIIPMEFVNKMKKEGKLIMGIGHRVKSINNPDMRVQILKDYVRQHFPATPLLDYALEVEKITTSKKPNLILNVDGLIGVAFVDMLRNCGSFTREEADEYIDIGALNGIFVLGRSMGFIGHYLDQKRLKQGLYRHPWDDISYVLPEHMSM

human ACLY = system: human ACLY; set-up: method as in PMID 30944472; settings: cited from earlier work
ACLY [3] = target: T1, ACLY; assay: ACLY enzymatic inhibition assay (ADP-Glo Kinase Assay); type: biochemical; settings: for IC50: concentration-response curves; for inhibition rate: preliminary screening, concentration of 10 µm;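 for all read-outs here: purified recombinant His-tagged human ACLY, compounds preincubated with enzyme 15 min, then ADP formed measured as luciferase luminescence after ADP-Glo reagent depletes leftover ATP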
ACLY [4] = target: T1, ACLY; assay: Thermal shift assay (Sypro Orange); type: binding; settings: DMSO control 54.5 °C
Description: The thermal shift assay was conducted in a real-time PCR machine (Bio-Rad, Hercules, CA, USA). Sypro Orange fluorescent dye was used to monitor protein folding/unfolding. Purified ACLY and compound solutions were preincubated in low-profile PCR tubes for 15 min at room temperature, and then Sypro Orange was added and incubated for another 15 min on ice. The total volume was 20 μL. The final concentration of ACLY was 1.45 μM and Sypro Orange was 12.5×. The PCR tubes were heated from 25 to 90 °C at a heating rate of 0.5 °C/10 s. The fluorescence intensity changes in each well were recorded. Tm (transition midpoint) was read from the melting curve.

ACLY [5] = target: T1, ACLY; assay: Enzymatic kinetic studies (Michaelis-Menten, Lineweaver-Burk); type: biochemical
Description: The inhibition profile of herbacetin against ACLY was determined by the Michaelis–Menten equation and Lineweaver–Burk curve. Reaction rates were recorded separately at different concentrations of substrates with various inhibitor concentrations. […] For competitive inhibition, Vmax is constant, Km decreases; for noncompetitive inhibition, Km is constant, Vmax decreases; for uncompetitive inhibition, both Vmax and Km decrease, while Km/Vmax is constant. Ki values could be calculated according to the following equations. [table]

[6] = Cell-free aggregation assay (DMR, Epic BT system); type: physicochemical; settings: for critical aggregation concentration (CAC): reaction buffer, DMR responses at a fixed time
Description: The aggregation assay was performed using an Epic BT system (Corning, NY, USA). Reaction buffer (30 μL) was aliquoted in an Epic 384-well microplate (Corning, NY, USA) and equilibrated for 1 h. Then 10 μL compound solution was added and the microplate was placed on the Epic reader. Dynamic mass redistribution (DMR) signals were recorded for 1 h.

ACLY [7] = target: T1, ACLY; assay: Western blotting analysis of ACLY thermal stability; type: binding
Description: Purified ACLY was preincubated with compounds or DMSO in tubes at room temperature for 15 min. The final concentration of ACLY was 0.58 μM. Then the solution was aliquoted into 200 μL PCR tubes and heated at the indicated temperature for 3 min. […] The SDS–PAGE samples were prepared in 1× loading buffer. A separation gel (8%) and stacking gel (5%) were used to separate and transfer target proteins onto PVDF membranes (0.45 μm). The membranes were blocked at room temperature for 1 h with a blocking solution (Beyotime, Shanghai, China), followed by addition of a primary antibody at room temperature for another 2 h. HRP-linked IgG was used as the secondary antibody and incubated at room temperature for 1 h. Protein bands were imaged by molecular imager ChemiDoc XRS+ (Bio-rad, Hercules, CA, USA).

[8] = natural ACLY inhibitors, discussion, no reference given

COc1ccc(-c2ccccc2)cc1NS(=O)(=O)c1cc(Cl)cc(Cl)c1O [BMS–303141]
plasma cholesterol, triglyceride and glucose levels [1]: lowered plasma cholesterol, triglyceride and glucose levels

O=C(O)CC(O)(C(=O)O)C(O)C(=O)O (centres unmarked) [Hydroxycitric acid]
Ki (ACLY [2]): 3 µM
Ki (ACLY [2]; [8]): 300 µM

COC(=O)c1cc(Cl)c(O)c(S(=O)(=O)Nc2cc(-c3ccccc3)c(F)cc2F)c1 [NDI–091143]
potency (human ACLY): nanomolar potency

O=C(O)[C@H]1O[C@@H](Oc2cc(O)c3c(=O)cc(-c4ccc(O)c(O)c4)oc3c2)[C@H](O)[C@@H](O)[C@@H]1O [compound 5, Luteolin 7-O-glucuronide]
IC50 (ACLY [3]): 1470 ± 200 nM

O=c1c(O[C@@H]2O[C@H](CO)[C@H](O)[C@H](O)[C@H]2O)c(-c2ccc(O)c(O)c2)oc2cc(O)cc(O)c12 [compound 6, Hyperoside]
IC50 (ACLY [3]): 1530 ± 80 nM

O=c1cc(-c2ccc(O)c(O)c2)oc2cc(O)c([C@@H]3O[C@H](CO)[C@@H](O)[C@H](O)[C@H]3O)c(O)c12 [compound 14, Isoorientin]
IC50 (ACLY [3]): 1860 ± 290 nM

C[C@@H]1O[C@@H](O[C@H]2[C@H](Oc3cc(O)c4c(=O)cc(-c5ccc(O)c(O)c5)oc4c3)O[C@H](CO)[C@@H](O)[C@@H]2O)[C@H](O)[C@H](O)[C@H]1O [compound 15, Lonicerin]
IC50 (ACLY [3]): 1430 ± 440 nM

O=c1c(O)c(-c2ccc(O)cc2)oc2c(O)c(O)cc(O)c12 [compound 18, Herbacetin]
Tm of ACLY (ACLY [4]; 40 μM herbacetin): 55.5 °C
Tm of ACLY (ACLY [4]; 200 μM herbacetin): 56.5 °C
Ki (ACLY [5]; ATP as substrate): 290 nM
Ki (ACLY [5]; CoA as substrate): 190 nM
Ki (ACLY [5]; citric acid (CA) as substrate): 110 nM
inhibition pattern (ACLY [5]; towards CA, ATP and CoA): noncompetitive inhibitor
DMR responses (aggregation state) ([6]; up to 100 μM): negligible DMR responses
stability of ACLY at a temperature gradient vs control (ACLY [7]; 200 μM, significant at 52, 57, 60 and 62 °C): more stable
isothermal dose-response of ACLY stability (ACLY [7]; 57 °C, different concentrations): concentration–dependent effect
IC50 (ACLY [3]): 500 ± 80 nM
inhibition rate (ACLY [3]): 96.07%
fold more active compared with kaempferol (ACLY [3]; ratio of IC50 values): 20 fold

O=C1c2c(O)cc(O)cc2OC(c2ccc(O)c(O)c2)C1O (centres unmarked) [compound 19, Taxifolin]
IC50 (ACLY [3]): 2540 ± 250 nM

O=c1c(O[C@@H]2O[C@H](CO)[C@@H](O)[C@H](O)[C@H]2O)c(-c2ccc(O)c(O)c2)oc2cc(O)cc(O)c12 [compound 20, Isoquercetin]
IC50 (ACLY [3]): 2140 ± 120 nM

O=c1cc(-c2ccc(O)cc2)oc2cc(O)cc(O)c12 [compound 21, Apigenin]
IC50 (ACLY [3]): 19100 ± 11600 nM

O=c1c(O)c(-c2ccc(O)c(O)c2)oc2cc(O)cc(O)c12 [compound 29, Quercetin]
critical aggregation concentration (CAC) [6]: 6.47 µM
IC50 (ACLY [3]): 860 ± 50 nM
inhibition rate (ACLY [3]): 91.09%
fold more active compared with kaempferol (ACLY [3]; ratio of IC50 values): 10 fold

O=c1c(O)c(-c2ccc(O)cc2)oc2cc(O)cc(O)c12 [compound 30, Kaempferol]
IC50 (ACLY [3]): 10200 ± 1070 nM

COc1cc(-c2oc3cc(O)cc(O)c3c(=O)c2O)ccc1O [compound 44, Isorhamnetin]
IC50 (ACLY [3]): 49700 ± 14800 nM

O=c1cc(-c2ccc(O)c(O)c2)oc2cc(O)cc(O)c12 [compound 51, Luteolin]
IC50 (ACLY [3]): 640 ± 130 nM
inhibition rate (ACLY [3]): 88.28%
activity fold higher than that of apigenin (ACLY [3]; ratio of IC50 values): 30 fold

O=c1cc(-c2ccc(O)cc2)oc2cc(O)c(O)c(O)c12 [compound 52, Scutellarein]
IC50 (ACLY [3]): 710 ± 60 nM
inhibition rate (ACLY [3]): 91.80%

O=C(O)[C@H]1O[C@@H](Oc2cc3oc(-c4ccc(O)cc4)cc(=O)c3c(O)c2O)[C@H](O)[C@@H](O)[C@@H]1O [compound 53, Scutellarin]
IC50 (ACLY [3]): 3770 ± 260 nM

Oc1cc(O)c2c(c1)OC(c1ccc(O)c(O)c1)C(O)C2 (centres unmarked) [compound 73, Catechin]
IC50 (ACLY [3]): 23600 ± 19200 nM

Oc1cc(O)c2cc(O)c(-c3ccc(O)c(O)c3)[o+]c2c1 [compound 74, Cyanidin]
IC50 (ACLY [3]): 1290 ± 140 nM

Oc1cc(O)c2c(c1)O[C@H](c1ccc(O)c(O)c1)[C@H](O)C2 [compound 75, Epicatechin]
IC50 (ACLY [3]): 31600 ± 9450 nM

O=c1c(O)c(-c2ccc(O)cc2O)oc2cc(O)cc(O)c12 [compound 87, Morin]
IC50 (ACLY [3]): 4070 ± 690 nM

O=c1c(O)c(-c2cc(O)c(O)c(O)c2)oc2cc(O)cc(O)c12 [compound 89, Myricetin]
critical aggregation concentration (CAC) [6]: 1.82 µM
IC50 (ACLY [3]): 570 ± 30 nM

O=c1c(O)c(-c2ccc(O)c(O)c2)oc2c(O)c(O)cc(O)c12 [compound 93, Gossypetin]
IC50 (ACLY [3]): 310 ± 20 nM

C[C@@H]1O[C@@H](Oc2cc(O)c3c(=O)c(O)c(-c4ccc(O)c(O)c4)oc3c2)[C@H](O)[C@H](O)[C@H]1O [compound 106, 7-(α-L-Rhamnopyranosyloxy)-2-(3,4-dihydroxyphenyl)-3,5-dihydroxy-4H-1-benzopyran-4-one]
IC50 (ACLY [3]): 570 ± 90 nM

O=C(/C=C/c1ccc(O)c(O)c1)O[C@@H]1C[C@](O)(C(=O)O)C[C@@H](OC(=O)/C=C/c2ccc(O)c(O)c2)[C@H]1O [isochlorogenic acid A]
IC50 (ACLY [2]; [8]): 100 nM

C[C@@H]1C[C@H]2O[C@@H]2/C=C\C=C\C(=O)Cc2c(Cl)c(O)cc(O)c2C(=O)O1 [radicicol]
Ki (ACLY [2]; [8]): 10 µM

anthrone
IC50 (ACLY [2]; [8]): 280 nM

antimycin
Ki (ACLY [2]; [8]): 4 µM
